Data as given in EPA's ToxRefDB 2.

Legend:
[1] = system: rat; conditions: Fertility (Segment I), sprague dawley, Oral, Gavage/Intubation, dose end: 7 GD
[2] = system: rat; conditions: Fertility (Segment I), sprague dawley, Oral, Gavage/Intubation, dose end: 7 GD; remark: listed apart in the source
[3] = system: rabbit; conditions: Prenatal developmental toxicity study; new zealand white; Oral; Gavage/Intubation; dose end: 19 GD; group: maternal; systemic / in life observation / body weight / body weight gain + systemic / in life observation / clinical signs / alopecia + systemic / in…
[4] = system: rat; conditions: Prenatal developmental toxicity study, sprague dawley, Oral, Gavage/Intubation, dose end: 17 GD
[5] = system: dog; conditions: Chronic toxicity; beagle; Oral; Gavage/Intubation; dose end: 6 month; group: systemic; systemic / in life observation / body weight / body weight + systemic / in life observation / clinical signs / pulse/pressure + systemic / …
[6] = system: rat; conditions: Chronic toxicity, sprague dawley, Oral, Gavage/Intubation, dose end: 6 month, group: systemic
[7] = system: rat; conditions: Fertility (Segment I), sprague dawley, Oral, Gavage/Intubation, dose end: 56 day
[8] = system: rat; conditions: Prenatal developmental toxicity study, sprague dawley, Oral, Gavage/Intubation, dose end: 17 GD; remark: listed apart in the source
[9] = system: rat; conditions: Sub-acute repeat dose toxicity, sprague dawley, Oral, Gavage/Intubation, dose end: 28 day
[10] = system: rabbit; conditions: Prenatal developmental toxicity study, new zealand white, Oral, Gavage/Intubation, dose end: 19 GD, group: maternal
[11] = system: dog; conditions: Sub-acute repeat dose toxicity; beagle; Oral; Gavage/Intubation; dose end: 1 month; group: systemic; systemic / clinical chemistry / cholesterol / cholesterol + systemic / in life observation / body weight / body weight + systemic / in life …
[12] = system: dog; conditions: Chronic toxicity; beagle; Oral; Capsule; dose end: 12 month; group: systemic; systemic / in life observation / body weight / body weight + systemic / in life observation / clinical signs / emaciation + systemic / in …
[13] = system: mouse; conditions: Carcinogenicity; cd1; Oral; Feed; dose end: 78 week; group: systemic; systemic / in life observation / body weight / body weight + systemic / in life observation / body weight / body weight gain
[14] = system: rat; conditions: Neurotoxicity screening battery; other; Oral; Feed; dose end: 11 month; group: cannot be grouped; systemic / in life observation / body weight / body weight
[15] = system: rat; conditions: Prenatal developmental toxicity study, sprague dawley, Oral, Gavage/Intubation, dose end: 15 GD
[16] = system: hamster; conditions: Subchronic oral toxicity in rodents, golden syrian, Feed, dose end: 90 day, group: systemic
[17] = system: rat; conditions: Subchronic oral toxicity in rodents, sprague-dawley, Feed, dose end: 90 day, group: systemic, systemic / organ weight / liver / absolute + systemic / organ weight / liver / relative to body weight + systemic / pathology microscopic / …
[18] = system: rat; conditions: Multigenerational reproductive toxicity study, sprague dawley, Oral, Feed, dose end: 2 generation
[19] = system: rat; conditions: Combined chronic toxicity/carcinogenicity; sprague dawley; Oral; Feed; dose end: 2 year; group: systemic; systemic / clinical chemistry / cholesterol / cholesterol + systemic / in life observation / body weight / body weight + systemic / in life …
[20] = group: maternal, reproductive / reproductive performance / estrous cycle / abnormal
[21] = group: parental, systemic / in life observation / clinical signs / [other] + systemic / in life observation / body weight / body weight gain + systemic / in …
[22] = group: maternal, reproductive / offspring survival early / litter viability other / total litter loss + reproductive / reproductive performance / …
[23] = group: parental, systemic / in life observation / body weight / body weight gain + systemic / in life observation / clinical signs / abnormal motor movement…
[24] = group: developmental, systemic / in life observation / body weight / fetal weight
[25] = group: maternal, systemic / in life observation / body weight / body weight + systemic / in life observation / body weight / body weight gain + systemic / in…
[26] = systemic / clinical chemistry / alanine aminotransferase (alt/sgpt) / alanine aminotransferase (alt/sgpt) + systemic / clinical chemistry / …
[27] = systemic / in life observation / clinical signs / [other] + systemic / organ weight / uterus / absolute + systemic / organ weight / uterus…
[28] = group: maternal, reproductive / reproductive performance / estrous cycle / corpora lutea + reproductive / reproductive performance / implantations / …
[29] = group: parental, systemic / in life observation / body weight / body weight gain + systemic / in life observation / clinical signs / [other] + systemic / in …
[30] = group: developmental, developmental / developmental malformation / bone / incomplete ossification + systemic / in life observation / body weight / fetal weight
[31] = group: systemic, systemic / in life observation / clinical signs / excessive or spontaneous vocalization + systemic / organ weight / salivary glands / …
[32] = systemic / in life observation / body weight / body weight gain + systemic / in life observation / food consumption / food consumption
[33] = systemic / in life observation / body weight / body weight gain + systemic / in life observation / food consumption / food consumption + …
[34] = group: maternal, systemic / in life observation / body weight / body weight gain + systemic / in life observation / clinical signs / ataxia + systemic / in …
[35] = systemic / in life observation / body weight / body weight + systemic / in life observation / food consumption / food consumption
[36] = systemic / in life observation / body weight / body weight + systemic / in life observation / food consumption / food consumption + systemic…
[37] = group: offspring, systemic / in life observation / body weight / offspring (pup) weight
[38] = group: parental, systemic / pathology gross / kidney / discolored + systemic / pathology microscopic / kidney / casts granular + systemic / pathology …

Structure (SMILES): FC(F)(F)c1cccc(C2=CCN(CCc3ccc4ccncc4c3)CC2)c1
- LEL [1, 20]: 0.1 mg/kg/day
- LOAEL [1, 20]: 0.1 mg/kg/day
- NEL [1, 20]: < 0.1 mg/kg/day
- NOAEL [1, 20]: < 0.1 mg/kg/day
- LEL [1, 21]: 0.1 mg/kg/day
- LOAEL [1, 21]: 0.1 mg/kg/day
- NEL [1, 21]: < 0.1 mg/kg/day
- NOAEL [1, 21]: < 0.1 mg/kg/day
- LOAEL [2, 22]: > 7.5 mg/kg/day
- NOAEL [2, 22]: ≥ 7.5 mg/kg/day
- LEL [2, 20]: 0.1 mg/kg/day
- NEL [2, 20]: < 0.1 mg/kg/day
- LEL ([2]; group: parental, systemic / in life observation / body weight / body weight gain): 1 mg/kg/day
- LOAEL [2, 23]: > 7.5 mg/kg/day
- NEL [2, 23]: 0.1 mg/kg/day
- NOAEL [2, 23]: ≥ 7.5 mg/kg/day
- LEL [3]: 0.01 mg/kg/day
- LOAEL [3]: > 0.05 mg/kg/day
- NEL [3]: < 0.01 mg/kg/day
- NOAEL [3]: ≥ 0.05 mg/kg/day
- LEL [4, 24]: 7.5 mg/kg/day
- LOAEL [4, 24]: 7.5 mg/kg/day
- NEL [4, 24]: 2.5 mg/kg/day
- NOAEL [4, 24]: 2.5 mg/kg/day
- LEL [4, 25]: 0.75 mg/kg/day
- LOAEL [4, 25]: > 7.5 mg/kg/day
- NEL [4, 25]: < 0.75 mg/kg/day
- NOAEL [4, 25]: ≥ 7.5 mg/kg/day
- LEL [5]: 0.01 mg/kg/day
- LOAEL [5]: > 0.25 mg/kg/day
- NEL [5]: < 0.01 mg/kg/day
- NOAEL [5]: ≥ 0.25 mg/kg/day
- LOAEL [6, 26]: > 7.5 mg/kg/day
- NOAEL [6, 26]: ≥ 7.5 mg/kg/day
- LEL [6, 27]: 0.1 mg/kg/day
- NEL [6, 27]: < 0.1 mg/kg/day
- LEL [7, 28]: 7.5 mg/kg/day
- LOAEL [7, 28]: > 7.5 mg/kg/day
- NEL [7, 28]: 1 mg/kg/day
- NOAEL [7, 28]: ≥ 7.5 mg/kg/day
- LEL [7, 29]: 0.1 mg/kg/day
- LOAEL [7, 29]: 0.1 mg/kg/day
- NEL [7, 29]: < 0.1 mg/kg/day
- NOAEL [7, 29]: < 0.1 mg/kg/day
- LEL [8, 30]: 7.5 mg/kg/day
- LOAEL [8, 30]: 7.5 mg/kg/day
- NEL [8, 30]: 2.5 mg/kg/day
- NOAEL [8, 30]: 2.5 mg/kg/day
- LEL [8, 25]: 0.75 mg/kg/day
- LOAEL [8, 25]: > 7.5 mg/kg/day
- NEL [8, 25]: < 0.75 mg/kg/day
- NOAEL [8, 25]: ≥ 7.5 mg/kg/day
- LEL [9, 20]: 1 mg/kg/day
- LOAEL [9, 20]: > 7.5 mg/kg/day
- NEL [9, 20]: 0.1 mg/kg/day
- NOAEL [9, 20]: ≥ 7.5 mg/kg/day
- LEL [9, 31]: 0.1 mg/kg/day
- LOAEL [9, 31]: 0.1 mg/kg/day
- NEL [9, 31]: < 0.1 mg/kg/day
- NOAEL [9, 31]: < 0.1 mg/kg/day
- LEL [10, 32]: 0.01 mg/kg/day
- NEL [10, 32]: < 0.01 mg/kg/day
- LOAEL [10, 33]: > 0.05 mg/kg/day
- NOAEL [10, 33]: ≥ 0.05 mg/kg/day
- LEL [11]: 0.01 mg/kg/day
- LOAEL [11]: 0.01 mg/kg/day
- NEL [11]: < 0.01 mg/kg/day
- NOAEL [11]: < 0.01 mg/kg/day

Structure (SMILES): CCN(CC)C(=O)c1cccc(C)c1 [DEET]
- LEL [12]: 400 mg/kg/day
- LOAEL [12]: 400 mg/kg/day
- NEL [12]: 100 mg/kg/day
- NOAEL [12]: 100 mg/kg/day
- LEL [13]: 1000 mg/kg/day
- LOAEL [13]: 1000 mg/kg/day
- NEL [13]: 500 mg/kg/day
- NOAEL [13]: 500 mg/kg/day
- LEL [14]: 250 mg/kg/day
- LOAEL [14]: > 250 mg/kg/day
- NEL [14]: 100 mg/kg/day
- NOAEL [14]: ≥ 250 mg/kg/day
- LEL [15, 24]: 750 mg/kg/day
- LOAEL [15, 24]: 750 mg/kg/day
- NEL [15, 24]: 250 mg/kg/day
- NOAEL [15, 24]: 250 mg/kg/day
- LEL [15, 34]: 750 mg/kg/day
- LOAEL [15, 34]: 750 mg/kg/day
- NEL [15, 34]: 250 mg/kg/day
- NOAEL [15, 34]: 250 mg/kg/day
- LEL [16, 35]: 304 mg/kg/day
- LOAEL [16, 35]: 304 mg/kg/day
- NEL [16, 36]: 61 mg/kg/day
- NOAEL [16, 36]: 61 mg/kg/day
- LEL [17]: 100 mg/kg/day
- LOAEL [17]: 100 mg/kg/day
- NEL [17]: < 100 mg/kg/day
- NOAEL [17]: < 100 mg/kg/day
- LEL [18, 37]: 250 mg/kg/day
- LOAEL [18, 37]: > 250 mg/kg/day
- NEL [18, 37]: 100 mg/kg/day
- NOAEL [18, 37]: ≥ 250 mg/kg/day
- LEL [18, 38]: 25 mg/kg/day
- LOAEL [18, 38]: 25 mg/kg/day
- NEL [18, 38]: < 25 mg/kg/day
- NOAEL [18, 38]: < 25 mg/kg/day
- LEL [19]: 400 mg/kg/day
- LOAEL [19]: 400 mg/kg/day
- NEL [19]: 100 mg/kg/day
- NOAEL [19]: 100 mg/kg/day
